Assay results taken from patent publication US8048879B2, “Substituted 4,5,6,7-tetrahydro-isoxazolo[4,5-c]pyridine compounds and use thereof for producing medicaments” (Gruenenthal GmbH, priority 2005, dated 2011).

What follows are compounds tested on batrachotoxin (BTX) binding site of the sodium channel (assay: Affinity for the batrachotoxin (BTX) binding site of the sodium channel, [3H]-batrachotoxinin A20 α-benzoate, rat cerebrocortex synaptosomes). Conditions: test concentration not given.

Row | SMILES | BTX inhibition (rat) % inhibition [%]
1 | C=CCOc1ccc(CN(Cc2ccco2)C(=O)c2noc3c2CN(S(=O)(=O)c2cccc(C(F)(F)F)c2)CC3)cc1 [Example 87, 5-(3-trifluoromethyl-benzenesulfonyl)-4,5,6,7-tetrahydro-isoxazolo[4,5-c]pyridine-3-carboxylic acid (4-allyloxy-benzyl)-furan-2-ylmethyl amide] | 41
2 | Cc1ccc(S(=O)(=O)N2CCc3onc(C(=O)N4CCN(CCC5CCCCC5)CC4)c3C2)cc1 [Example 82, [4-(2-cyclohexyl-ethyl)-piperazin-1-yl]-[5-(toluene-4-sulfonyl)-4,5,6,7-tetrahydro-isoxazolo[4,5-c]pyridin-3-yl]-methanone] | 69
3 | O=C(NCc1ccccc1)c1noc2c1CN(C(=O)NCCc1ccccc1)CC2 [Example 10, 6,7-dihydro-4H-isoxazolo[4,5-c]pyridine-3,5-dicarboxylic acid 3-benzyl amide 5-(phenethyl amide)] | 64
4 | Cc1ccc(NC(=O)c2noc3c2CN(S(=O)(=O)c2ccc(C)cc2)CC3)cc1 [Example 152, N-p-tolyl-5-tosyl-4,5,6,7-tetrahydroisoxazolo[4,5-c]pyridine-3-carboxamide] | 29
5 | O=C(c1noc2c1CN(S(=O)(=O)c1ccc(OC(F)(F)F)cc1)CC2)N(CCc1ccccc1)Cc1ccccc1 [Example 32, 5-(4-trifluoromethoxy-benzenesulfonyl)-4,5,6,7-tetrahydro-isoxazolo[4,5-c]pyridine-3-carboxylic acid benzyl-phenethyl amide] | 59
6 | O=C(NC1CCN(Cc2ccc3ccccc3c2)C1)c1noc2c1CN(S(=O)(=O)c1ccccc1)CC2 (centres unmarked) [Example 33, 5-benzenesulfonyl-4,5,6,7-tetrahydro-isoxazolo[4,5-c]pyridine-3-carboxylic acid (1-naphthalen-2-ylmethyl-pyrrolidin-3-yl) amide] | 93
7 | O=C(Nc1ccccc1)c1noc2c1CN(C(=O)c1ccccc1F)CC2 [Example 156, 5-(2-fluorobenzoyl)-N-phenyl-4,5,6,7-tetrahydroisoxazolo[4,5-c]pyridine-3-carboxamide] | 26
8 | COc1ccc(Cl)cc1NC(=O)N1CCc2onc(C(=O)NCCc3ccccc3)c2C1 [Example 22, 6,7-dihydro-4H-isoxazolo[4,5-c]pyridine-3,5-dicarboxylic acid 5-[(5-chloro-2-methoxyphenyl) amide] 3-(phenethyl amide)] | 56
9 | CCOc1ccc(NC(=O)N2CCc3onc(C(=O)Nc4ccccc4)c3C2)cc1 [Example 13, 6,7-dihydro-4H-isoxazolo[4,5-c]pyridine-3,5-dicarboxylic acid 5-[(4-ethoxy-phenyl) amide] 3-phenyl amide] | 58
10 | Cc1ccc(S(=O)(=O)N2CCc3onc(C(=O)NC4CCN(Cc5c(Cl)cccc5Cl)C4)c3C2)cc1 (centres unmarked) [Example 91, 5-(toluene-4-sulfonyl)-4,5,6,7-tetrahydro-isoxazolo[4,5-c]pyridine-3-carboxylic acid [1-(2,6-dichloro-benzyl)-pyrrolidin-3-yl] amide] | 61
11 | O=C(NC1CCN(Cc2ccc(C(F)(F)F)cc2)C1)c1noc2c1CN(S(=O)(=O)c1ccccc1)CC2 (centres unmarked) [Example 103, 5-benzenesulfonyl-4,5,6,7-tetrahydro-isoxazolo[4,5-c]pyridine-3-carboxylic acid [1-(4-trifluoromethyl-benzyl)-pyrrolidin-3-yl] amide] | 92
12 | O=C(O)CC1(CC(=O)N2CCc3onc(C(=O)Nc4ccccc4)c3C2)CCCC1 [Example 28, {1-[2-oxo-2-(3-phenylcarbamoyl-6,7-dihydro-4H-isoxazolo[4,5-c]pyridin-5-yl)-ethyl]-cyclopentyl}acetic acid] | 60
13 | O=C(NCCN1CCCC1)c1noc2c1CN(C(=O)COc1cccc(Cl)c1)CC2 [Example 94, 5-[2-(3-chlorophenoxy)-acetyl]-4,5,6,7-tetrahydro-isoxazolo[4,5-c]pyridine-3-carboxylic acid (2-pyrrolidin-1-yl-ethyl) amide] | 60
14 | O=C(NC1CCCC1)c1noc2c1CN(C(=O)COc1ccc(Cl)cc1)CC2 [Example 81, 5-[2-(4-chlorophenoxy)-acetyl]-4,5,6,7-tetrahydro-isoxazolo[4,5-c]pyridine-3-carboxylic acid cyclopentyl amide] | 65
